Source: patent US12581252B2, “Substituted pyrrolo[3,4-b]pyridines as PI3K-α inhibitors” (Relay Therapeutics, Inc., priority 2020, dated 2026)

The molecules below were run against H1047R PIK3CA enzyme (Homo sapiens, UniProt P42336, H1047R) (assay: ADP-Glo Biochemical PIK3CA Kinase Assay).
Chain of H1047R PIK3CA enzyme (P42336 whole entry H1047R): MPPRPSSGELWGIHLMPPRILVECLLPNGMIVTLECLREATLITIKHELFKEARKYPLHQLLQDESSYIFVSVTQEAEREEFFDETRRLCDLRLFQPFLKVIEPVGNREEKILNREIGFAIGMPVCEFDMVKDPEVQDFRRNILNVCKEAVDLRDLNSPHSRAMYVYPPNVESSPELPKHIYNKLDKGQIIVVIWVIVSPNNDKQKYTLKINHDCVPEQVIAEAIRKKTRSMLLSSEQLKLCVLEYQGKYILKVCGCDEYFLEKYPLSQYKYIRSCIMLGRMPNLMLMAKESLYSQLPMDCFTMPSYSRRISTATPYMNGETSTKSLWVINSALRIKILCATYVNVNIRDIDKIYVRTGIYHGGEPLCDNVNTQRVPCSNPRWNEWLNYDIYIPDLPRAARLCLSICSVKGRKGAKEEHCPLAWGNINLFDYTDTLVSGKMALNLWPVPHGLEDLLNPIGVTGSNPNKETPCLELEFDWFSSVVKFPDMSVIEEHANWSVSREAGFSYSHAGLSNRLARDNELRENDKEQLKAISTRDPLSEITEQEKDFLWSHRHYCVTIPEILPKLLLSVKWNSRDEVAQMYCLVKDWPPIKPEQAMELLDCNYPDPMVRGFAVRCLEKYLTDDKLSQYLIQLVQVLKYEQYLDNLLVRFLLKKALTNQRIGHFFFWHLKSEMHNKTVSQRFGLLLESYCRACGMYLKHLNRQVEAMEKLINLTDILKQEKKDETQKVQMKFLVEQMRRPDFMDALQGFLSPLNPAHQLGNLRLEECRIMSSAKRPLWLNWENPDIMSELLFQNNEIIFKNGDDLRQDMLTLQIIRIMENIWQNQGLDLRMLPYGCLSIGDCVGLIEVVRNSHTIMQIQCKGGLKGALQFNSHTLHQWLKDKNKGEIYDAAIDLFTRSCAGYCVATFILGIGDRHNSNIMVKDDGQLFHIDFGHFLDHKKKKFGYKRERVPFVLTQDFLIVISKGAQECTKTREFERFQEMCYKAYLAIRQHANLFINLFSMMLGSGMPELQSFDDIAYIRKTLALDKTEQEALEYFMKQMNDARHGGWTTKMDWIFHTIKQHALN
Chain of H1047R PIK3CA enzyme (P27986 whole entry partner): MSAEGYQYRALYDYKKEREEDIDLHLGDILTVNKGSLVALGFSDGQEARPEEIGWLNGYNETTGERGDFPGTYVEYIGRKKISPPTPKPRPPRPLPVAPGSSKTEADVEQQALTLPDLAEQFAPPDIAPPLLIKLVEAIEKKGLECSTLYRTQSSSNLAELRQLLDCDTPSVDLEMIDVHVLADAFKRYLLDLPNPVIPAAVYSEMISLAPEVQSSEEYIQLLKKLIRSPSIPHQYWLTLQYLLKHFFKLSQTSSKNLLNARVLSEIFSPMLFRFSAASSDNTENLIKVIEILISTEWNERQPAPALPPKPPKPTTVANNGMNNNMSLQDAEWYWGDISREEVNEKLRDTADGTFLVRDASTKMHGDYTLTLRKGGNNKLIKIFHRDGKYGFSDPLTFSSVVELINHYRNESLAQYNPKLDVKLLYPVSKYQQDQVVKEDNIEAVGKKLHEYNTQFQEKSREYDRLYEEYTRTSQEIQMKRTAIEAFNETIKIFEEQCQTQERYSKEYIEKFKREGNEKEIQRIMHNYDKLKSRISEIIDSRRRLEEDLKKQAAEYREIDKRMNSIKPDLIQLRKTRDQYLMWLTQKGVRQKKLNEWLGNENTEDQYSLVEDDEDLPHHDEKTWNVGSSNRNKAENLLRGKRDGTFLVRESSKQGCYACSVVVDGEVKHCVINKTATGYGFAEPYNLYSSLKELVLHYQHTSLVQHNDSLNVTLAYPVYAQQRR

SMILES	IC50 [µM]
Cc1ccccc1[C@@H]1NC(=O)c2cc(N)cc(NC(=O)c3cc(F)cc(C(F)(F)F)c3)c21 [Compound I-66]	≤ 0.1
N#CCc1cc(NC(=O)N2C[C@@](O)(C(F)(F)F)c3ccccc32)c2c(c1)C(=O)N[C@H]2c1cc(F)ccc1Cl (single isomer, unassigned) [Compound I-2602]	1 to 10
O=C(Nc1cccc2c1[C@H]([C@@H]1CCCCC1=O)NC2=O)c1cc(F)cc(C(F)(F)F)c1 (racemic) [Compound I-2036]	10 to 100
CC(C)(O)c1cc(NC(=O)c2nsc3ccccc23)c2c(c1)C(=O)N[C@@H]2c1cc(F)ccc1Cl [Compound I-191]	0.5 to 1
O=C1NC(C2CCCCC2)c2c(NC(=O)c3nsc4ccccc34)cccc21 (stereo not drawn) [Compound I-204, N-(3-Cyclohexyl-1-oxoisoindolin-4-yl)benzo[d]isothiazole-3-carboxamide]	0.1 to 0.5
O=C(Nc1cc(CS(=O)(=O)N2CCOCC2)cc2c1C(c1cc(F)ccc1Cl)NC2=O)c1cc(F)cc(C(F)(F)F)c1 (stereo not drawn) [Compound I-1364]	≤ 0.1
O=C(Nc1cc(NC2=NC[C@H](C(F)(F)F)O2)cc2c1[C@H](c1cc(F)ccc1Cl)NC2=O)c1cc(F)cc(C(F)(F)F)c1 (single isomer, unassigned) [Compound I-2323]	0.1 to 0.5
CC(C)(CN)n1cc(-c2cc(NC(=O)N3C[C@](O)(C(F)(F)F)c4cc(F)ccc43)c3c(c2)C(=O)N[C@H]3c2cc(F)ccc2Cl)cn1 (single isomer, unassigned) [Compound I-2652]	1 to 10
Cc1cc(F)ccc1C1NC(=O)c2cccc(NC(=O)c3cc(F)cc(C(F)(F)F)c3)c21 (stereo not drawn) [Compound I-327]	0.5 to 1
O=C1NC(c2cc(F)ccc2Cl)c2c(NC(=O)c3csc4ccccc34)cc(Br)cc21 (stereo not drawn) [Compound I-626]	≤ 0.1
O=C1N[C@H](c2cc(F)ccc2Cl)c2c(NC(=O)N3C[C@@H](O)c4cc(F)ccc43)cccc21 (single isomer, unassigned) [Compound I-2129]	10 to 100
Cc1ccccc1C1NC(=O)c2cc(C3(O)CC3)cc(NC(=O)c3nsc4ccccc34)c21 (stereo not drawn) [Compound I-315, N-[6-(1-hydroxycyclopropyl)-3-(2-methylphenyl)-1-oxo-2,3-dihydro-1H-isoindol-4-yl]-1,2-benzothiazole-3-carboxamide]	≤ 0.1
O=C(Nc1cc(C#Cc2ccncc2)cc2c1C(c1cc(F)ccc1Cl)NC2=O)c1cc(F)cc(C(F)(F)F)c1 (stereo not drawn) [Compound I-1224]	≤ 0.1
O=C1N[C@H](c2cc(F)ccc2Cl)c2c(NC(=O)N3C[C@](O)(C(F)(F)F)c4cc(F)ccc43)cccc21 (single isomer, unassigned) [Compound I-2516]	1 to 10
O=C(Nc1cccc2c1C(c1cccc(F)c1)NC2=O)c1cc(F)cc(C(F)(F)F)c1 (stereo not drawn) [Compound I-390]	1 to 10
Cc1ncc(-c2cc(NC(=O)c3cc(F)cc(Cl)c3)c3c(n2)C(=O)NC3c2cc(F)ccc2Cl)cn1 (stereo not drawn) [Compound I-460]	0.1 to 0.5
Cc1ccccc1C1NC(=O)c2cccc(NC(=O)N3CC(=O)Nc4ccccc43)c21 (stereo not drawn) [Compound I-44]	10 to 100
Cc1ccccc1[C@@H]1NC(=O)c2c(C(N)=O)ccc(NC(=O)c3cc(F)cc(C(F)(F)F)c3)c21 [Compound I-508]	≤ 0.1
N#Cc1cnn(Cc2cc(NC(=O)N3C[C@](O)(C(F)(F)F)c4cc(F)ccc43)c3c(c2)C(=O)N[C@H]3c2cc(F)ccc2Cl)c1 (single isomer, unassigned) [Compound I-2671]	0.5 to 1
O=C1N[C@H](c2cc(F)ccc2Cl)c2c(NC(=O)N3C[C@@H](CO)[C@H](C(F)(F)F)C3)cccc21 (single isomer, unassigned) [Compound I-2276]	10 to 100

SMILES	IC50 [µM]
N#Cc1cn(Cc2cc(NC(=O)c3cc(F)cc(C(F)(F)F)c3)c3c(c2)C(=O)NC3c2cc(F)ccc2Cl)cn1 (stereo not drawn) [Compound I-1719]	≤ 0.1
O=C(Nc1cc(-c2cccnc2)cc2c1C(c1cc(F)ccc1Cl)NC2=O)c1cc(F)cc(C(F)(F)F)c1 (stereo not drawn) [Compound I-888]	≤ 0.1
CC(=O)N1CCC(C2NC(=O)c3cccc(NC(=O)c4cc(F)cc(C(F)(F)F)c4)c32)CC1 (stereo not drawn) [Compound I-1818]	10 to 100
Cc1ccc(C(=O)Nc2cc(-c3ccc4ncnn4c3)cc3c2[C@H](c2cc(F)ccc2Cl)NC3=O)cc1C(F)(F)F (stereo in doubt) [Compound I-1167]	≤ 0.1
O=C1NC(c2cc(F)ccc2Cl)c2c(NC(=O)C3CCCC(C(F)(F)F)N3)cc(-c3ccc4ncnn4c3)cc21 (mixture of isomers) [Compound I-1992]	1 to 10
O=C(Nc1cc(Br)cc2c1C(c1cc(F)ccc1Cl)NC2=O)c1cc(F)cc(C2CCC2)c1 (stereo not drawn) [Compound I-1351]	1 to 10
O=C1NC(c2cc(F)ccc2Cl)c2c1cc(-c1ccc3ncnn3c1)cc2N1CCOCC1 (stereo not drawn) [Compound I-1911]	10 to 100
O=C(Nc1cc(-c2ccc3ncnn3c2)cc2c1[C@@H](c1cc(F)ccc1Cl)NC2=O)c1ccc(F)c(OC(F)(F)F)c1 (stereo in doubt) [Compound I-1108]	1 to 10
CNc1cc(NC(=O)N2C[C@](O)(C(F)F)c3cc(F)ccc32)c2c(c1)C(=O)N[C@H]2c1cc(F)ccc1Cl (single isomer, unassigned) [Compound I-2678]	1 to 10
Nc1cc(C2NC(=O)c3cccc(NC(=O)c4cc(F)cc(C(F)(F)F)c4)c32)ccn1 (stereo not drawn) [Compound I-828]	10 to 100
Cc1ccccc1C1NC(=O)c2cccc(NC(=O)c3cc(Cl)n4ccccc34)c21 (stereo not drawn) [Compound I-69]	0.1 to 0.5
Cc1ccccc1C1NC(=O)c2nccc(NC(=O)N3CCc4cnccc43)c21 (stereo not drawn) [Compound I-248]	10 to 100
O=C(Nc1cc(CS(=O)(=O)c2ccccc2)cc2c1C(c1cc(F)ccc1Cl)NC2=O)c1cc(F)cc(C(F)(F)F)c1 (stereo not drawn) [Compound I-1436]	≤ 0.1
N#Cc1nn(C(F)F)cc1-c1cc(NC(=O)c2cc(F)cc(C(F)(F)F)c2)c2c(c1)C(=O)NC2c1cc(F)ccc1Cl (stereo not drawn) [Compound I-1826]	≤ 0.1
O=C(Nc1cc(-c2ccc3nc(C(F)F)cn3c2)cc2c1C(c1cc(F)ccc1Cl)NC2=O)c1cc(F)cc(C(F)(F)F)c1 (stereo not drawn) [Compound I-1864]	≤ 0.1
O=C(Nc1cccc2c1C(C1CCCN1)NC2=O)c1cc(F)cc(C(F)(F)F)c1 (racemic) [Compound I-1956]	10 to 100
O=C1NC(c2cc(F)ccc2Cl)c2c(NC(=O)c3cccc4c(Cl)c[nH]c34)cc(Br)cc21 (stereo not drawn) [Compound I-1271]	0.5 to 1
O=C(Nc1cccc2c1C(c1cc(Br)ccc1Cl)NC2=O)c1cc(F)cc(C(F)(F)F)c1 (stereo not drawn) [Compound I-446]	≤ 0.1
O=C1NC(c2cc(F)ccc2Cl)c2c(NC(=O)C34CC(CO)(C3)C4)cccc21 (stereo not drawn) [Compound I-2219]	10 to 100
O=C(Nc1cc(B(O)O)cc2c1C(c1cc(F)ccc1Cl)NC2=O)c1cc(F)cc(Cl)c1 (stereo not drawn) [Compound I-385]	≤ 0.1

SMILES	IC50 [µM]
O=C(Nc1cccc2c1C(C1CCCC(O)C1)NC2=O)c1cc(F)cc(C(F)(F)F)c1 (mixture of isomers) [Compound I-2224]	10 to 100
Cc1ccccc1C1NC(=O)c2cc(CC(C)C)cc(NC(=O)c3cc(F)cc(C(F)(F)F)c3)c21 (stereo not drawn) [Compound I-268]	≤ 0.1
CS(=O)(=O)N1CC(Oc2cc(NC(=O)c3cc(F)cc(C(F)(F)F)c3)c3c(c2)C(=O)NC3c2cc(F)ccc2Cl)C1 (stereo not drawn) [Compound I-1346]	≤ 0.1
O=C(Nc1cc(-c2cn[nH]c2)nc2c1[C@@H](c1cc(F)ccc1Cl)NC2=O)c1cc(F)cc(C(F)(F)F)c1 [Compound I-193]	1 to 10
Cc1ncc(-c2cc(NC(=O)c3cc(F)cc(C(F)(F)F)c3)c3c(c2)C(=O)NC3c2cc(F)ccc2Cl)cn1 (stereo not drawn) [Compound I-732]	≤ 0.1
O=C1NC(c2cc(F)ccc2Cl)c2c(NC(=O)C(O)c3ccccc3)cc(-c3ccc4ncnn4c3)cc21 (stereo not drawn) [Compound I-1724]	10 to 100
O=C(Nc1cc(OCC2(O)COC2)cc2c1C(c1cc(F)ccc1Cl)NC2=O)c1cc(F)cc(C(F)(F)F)c1 (stereo not drawn) [Compound I-1338]	0.1 to 0.5
Cc1ccccc1C1NC(=O)c2cccc(NC(=O)c3csc4cncnc34)c21 (stereo not drawn) [Compound I-63]	10 to 100
O=C1NC(c2cc(Cl)ccc2Cl)c2c(NC(=O)c3nsc4ccccc34)cccc21 (stereo not drawn) [Compound I-157]	≤ 0.1
O=C(Nc1cccc2c1[C@H](CC1CCCC1)NC2=O)c1cc(F)cc(C(F)(F)F)c1 [Compound I-2153]	1 to 10
CN1CCCC[C@H]1[C@@H]1NC(=O)c2cccc(NC(=O)c3cc(F)cc(C(F)(F)F)c3)c21 (racemic) [Compound I-1733]	10 to 100
O=C(Nc1cc(OC[C@H]2CCO2)cc2c1[C@H](c1cc(F)ccc1Cl)NC2=O)c1cc(F)cc(C(F)(F)F)c1 (single isomer, unassigned) [Compound I-1518]	≤ 0.1
O=C(Nc1cc(Br)cc2c1C(c1cc(F)ccc1Cl)NC2=O)c1cc(Cl)ccc1C(F)F (stereo not drawn) [Compound I-911]	1 to 10
O=C(Nc1cc(N2CC(F)(F)C2)nc2c1C(c1cc(F)ccc1Cl)NC2=O)c1cc(F)cc(C(F)(F)F)c1 (stereo not drawn) [Compound I-286, N-[5-(2-Chloro-5-fluorophenyl)-2-(3,3-difluoroazetidin-1-yl)-7-oxo-5H,6H,7H-pyrrolo[3,4-b]pyridin-4-yl]-3-fluoro-5-(trifluoromethyl)benzamide]	≤ 0.1
N#Cc1cnc2c(F)cc(-c3cc(NC(=O)c4cc(F)cc(C(F)(F)F)c4)c4c(c3)C(=O)N[C@@H]4c3cc(F)ccc3Cl)cn12 [Compound I-1855]	0.5 to 1
CN(C)c1cc(NC(=O)N2C[C@@](O)(C(F)(F)F)c3cc(F)ccc32)c2c(n1)C(=O)N[C@H]2c1cc(F)ccc1Cl (single isomer, unassigned) [Compound I-2691]	1 to 10
Cn1cc(Oc2cc(NC(=O)c3cc(F)cc(C(F)(F)F)c3)c3c(c2)C(=O)NC3c2cc(F)ccc2Cl)cn1 (stereo not drawn) [Compound I-1120]	1 to 10
O=C1NC(c2cc(F)ccc2Cl)c2c(NC(=O)C3CC(O)C3)cc(-c3ccc4ncnn4c3)cc21 (stereo not drawn) [Compound I-1664]	10 to 100
N#CCc1cc(NC(=O)N2C[C@](O)(C(F)F)c3cc(F)ccc32)c2c(c1)C(=O)N[C@@H]2c1cc(F)ccc1Cl (single isomer, unassigned) [Compound I-2598]	1 to 10
O=C1N[C@H](c2cc(F)ccc2Cl)c2c(NC(=O)[C@H]3CCC[C@H](OC(F)(F)F)C3)cccc21 (single isomer, unassigned) [Compound I-2211]	10 to 100
